The values below come from paper PMC9415947 (Pharmaceuticals, 2022).

Holding throughout (assay type): biochemical
The target of assay [1] is T1, PI3Kδ (Homo sapiens, UniProt O00329).
T1 construct: purchased Merck Millipore
Nature of the assay: In vitro PI3K inhibition assay (ADP-Glo kinase assay), PI3Kδ. Particulars: mean of two independent experiments. The method, then: (§1) All compounds were tested in a biochemical assay that measured the inhibition of phosphatidylinositol […] production by PI3K isoforms using the ADP-Glo kinase assay (Promega). In addition, the effects of synthesized compounds on B cell proliferation were measured.
(§2) The potency and selectivity of compounds were assessed by measuring the ability of PI3K kinases to convert ATP to ADP during an enzymatic reaction in the presence of decreasing doses of tested compounds. The experiments were carried out using the ADP-Glo kinase assay kit (Promega), according to the manufacturer’s protocol. PI3Kα, PI3Kβ, PI3Kδ, and PI3Kγ have been purchased from Merck Millipore and phosphoinositol-4,5-bisphosphate (PIP2) lipid vesicles with phosphoserine from ThermoFisher Scientific were used as a substrate in the enzymatic reaction.
(§3) After the reaction, the ADP-Glo reagent and the kinase detection reagent were added sequentially with 40 min of incubation (25 °C, 600 rpm) after adding each reagent. Finally, the luminescence intensity was measured and the IC50 was calculated using GraphPad Prism 7 software. The presented results are the mean value of IC50 from at least two independent experiments.
Background: ADP-Glo turns the ADP formed in a reaction into a luminescent signal.

Assay [2] has as its target T2, PI3Kα (Homo sapiens, UniProt P42336).
T2 construct: purchased Merck Millipore (methods text)
Nature of the assay: In vitro PI3K inhibition assay (ADP-Glo kinase assay), PI3Kα. Particulars: for Fold Selectivity α/δ: ratio IC50 PI3Kα / IC50 PI3Kδ. The method, then:
as §1, §2, §3

The target of assay [3] is T3, PI3Kβ (Homo sapiens, UniProt P42338).
T3 construct: purchased Merck Millipore
T3 sequence (P42338 whole entry, looked up): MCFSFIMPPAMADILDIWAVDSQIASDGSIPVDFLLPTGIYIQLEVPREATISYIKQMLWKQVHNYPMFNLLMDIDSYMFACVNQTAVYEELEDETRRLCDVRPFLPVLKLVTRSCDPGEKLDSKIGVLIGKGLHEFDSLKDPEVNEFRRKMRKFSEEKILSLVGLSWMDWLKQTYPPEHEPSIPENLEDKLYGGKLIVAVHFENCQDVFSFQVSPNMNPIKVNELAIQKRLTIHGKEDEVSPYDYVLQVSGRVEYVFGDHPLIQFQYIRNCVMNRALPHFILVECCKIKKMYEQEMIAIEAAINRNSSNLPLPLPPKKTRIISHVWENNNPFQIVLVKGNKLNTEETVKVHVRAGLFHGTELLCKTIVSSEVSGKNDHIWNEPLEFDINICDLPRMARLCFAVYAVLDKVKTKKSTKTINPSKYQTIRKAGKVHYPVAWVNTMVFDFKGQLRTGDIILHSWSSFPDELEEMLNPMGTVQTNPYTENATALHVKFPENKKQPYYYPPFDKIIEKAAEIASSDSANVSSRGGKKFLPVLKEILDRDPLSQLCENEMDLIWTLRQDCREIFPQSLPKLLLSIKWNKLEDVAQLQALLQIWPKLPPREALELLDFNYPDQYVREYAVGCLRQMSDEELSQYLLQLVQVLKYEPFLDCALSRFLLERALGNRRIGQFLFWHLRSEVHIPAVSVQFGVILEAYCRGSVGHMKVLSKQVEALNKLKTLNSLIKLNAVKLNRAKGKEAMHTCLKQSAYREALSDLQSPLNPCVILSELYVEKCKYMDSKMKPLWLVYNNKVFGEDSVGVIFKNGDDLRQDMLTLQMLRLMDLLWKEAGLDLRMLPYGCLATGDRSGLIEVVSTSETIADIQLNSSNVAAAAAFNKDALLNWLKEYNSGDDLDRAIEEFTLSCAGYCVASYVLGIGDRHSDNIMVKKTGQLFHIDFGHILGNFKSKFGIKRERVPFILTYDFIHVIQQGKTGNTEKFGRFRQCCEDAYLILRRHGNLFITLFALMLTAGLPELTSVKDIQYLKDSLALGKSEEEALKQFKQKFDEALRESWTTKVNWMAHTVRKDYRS
Nature of the assay: In vitro PI3K inhibition assay (ADP-Glo kinase assay), PI3Kβ. The conditions noted are these: for IC50: mean of two independent experiments; for Fold Selectivity β/δ: ratio IC50 PI3Kβ / IC50 PI3Kδ. On the procedure:
as §1, §2, §3

Assay [4] concerns the target T4, PI3Kγ (Homo sapiens, UniProt P48736).
T4 construct: purchased Merck Millipore
Nature of the assay: In vitro PI3K inhibition assay (ADP-Glo kinase assay), PI3Kγ. The conditions noted are these: for IC50: mean of two independent experiments; for Fold Selectivity γ/δ: ratio IC50 PI3Kγ / IC50 PI3Kδ. On the procedure:
as §1, §2, §3

T2 sequence (P42336 whole entry): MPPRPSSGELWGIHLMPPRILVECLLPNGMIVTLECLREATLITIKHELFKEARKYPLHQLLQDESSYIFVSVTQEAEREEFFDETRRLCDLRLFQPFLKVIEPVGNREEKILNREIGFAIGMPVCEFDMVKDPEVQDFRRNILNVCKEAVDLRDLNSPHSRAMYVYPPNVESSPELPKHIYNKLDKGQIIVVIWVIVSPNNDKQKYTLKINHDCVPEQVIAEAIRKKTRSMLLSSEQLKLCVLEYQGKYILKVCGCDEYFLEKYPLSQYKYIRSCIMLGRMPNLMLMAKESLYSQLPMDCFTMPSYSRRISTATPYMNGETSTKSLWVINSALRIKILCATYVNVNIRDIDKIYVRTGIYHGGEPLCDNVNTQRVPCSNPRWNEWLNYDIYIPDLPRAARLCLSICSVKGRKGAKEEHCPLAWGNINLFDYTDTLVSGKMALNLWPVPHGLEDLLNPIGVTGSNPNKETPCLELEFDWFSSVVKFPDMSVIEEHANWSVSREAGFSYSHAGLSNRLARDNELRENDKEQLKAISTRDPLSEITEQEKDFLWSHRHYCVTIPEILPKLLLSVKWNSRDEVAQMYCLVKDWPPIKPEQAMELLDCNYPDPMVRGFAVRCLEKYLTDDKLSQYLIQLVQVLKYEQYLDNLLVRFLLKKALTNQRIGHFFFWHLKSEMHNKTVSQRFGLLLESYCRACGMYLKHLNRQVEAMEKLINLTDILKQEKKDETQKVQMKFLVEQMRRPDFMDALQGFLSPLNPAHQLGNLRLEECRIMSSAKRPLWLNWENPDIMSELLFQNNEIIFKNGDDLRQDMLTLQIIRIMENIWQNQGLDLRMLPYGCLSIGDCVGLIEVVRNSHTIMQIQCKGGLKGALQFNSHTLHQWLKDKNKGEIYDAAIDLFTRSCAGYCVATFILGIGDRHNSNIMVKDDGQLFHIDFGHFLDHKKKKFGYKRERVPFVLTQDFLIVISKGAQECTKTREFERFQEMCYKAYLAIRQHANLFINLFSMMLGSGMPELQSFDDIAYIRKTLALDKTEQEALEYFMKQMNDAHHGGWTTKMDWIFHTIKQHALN
T2 sequence (P27986 whole entry partner): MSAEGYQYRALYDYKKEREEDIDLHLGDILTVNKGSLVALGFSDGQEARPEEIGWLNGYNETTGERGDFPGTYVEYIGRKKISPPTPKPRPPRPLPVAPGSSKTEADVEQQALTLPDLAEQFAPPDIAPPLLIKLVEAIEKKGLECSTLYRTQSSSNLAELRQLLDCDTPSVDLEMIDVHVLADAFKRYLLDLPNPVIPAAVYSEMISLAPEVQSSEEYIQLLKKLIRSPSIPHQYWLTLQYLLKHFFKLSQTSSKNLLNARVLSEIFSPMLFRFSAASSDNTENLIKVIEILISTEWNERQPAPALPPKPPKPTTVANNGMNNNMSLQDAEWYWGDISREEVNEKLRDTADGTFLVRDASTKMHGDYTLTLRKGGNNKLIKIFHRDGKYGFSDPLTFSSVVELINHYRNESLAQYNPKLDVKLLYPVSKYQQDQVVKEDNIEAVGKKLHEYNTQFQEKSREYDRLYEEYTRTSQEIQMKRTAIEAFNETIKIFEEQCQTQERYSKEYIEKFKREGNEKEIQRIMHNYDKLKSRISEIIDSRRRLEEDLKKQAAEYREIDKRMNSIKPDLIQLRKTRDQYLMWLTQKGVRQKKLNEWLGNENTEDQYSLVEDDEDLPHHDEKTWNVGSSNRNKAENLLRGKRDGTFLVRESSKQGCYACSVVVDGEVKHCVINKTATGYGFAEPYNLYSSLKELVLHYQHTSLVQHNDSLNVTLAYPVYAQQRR
T1 sequence (O00329 whole entry, looked up): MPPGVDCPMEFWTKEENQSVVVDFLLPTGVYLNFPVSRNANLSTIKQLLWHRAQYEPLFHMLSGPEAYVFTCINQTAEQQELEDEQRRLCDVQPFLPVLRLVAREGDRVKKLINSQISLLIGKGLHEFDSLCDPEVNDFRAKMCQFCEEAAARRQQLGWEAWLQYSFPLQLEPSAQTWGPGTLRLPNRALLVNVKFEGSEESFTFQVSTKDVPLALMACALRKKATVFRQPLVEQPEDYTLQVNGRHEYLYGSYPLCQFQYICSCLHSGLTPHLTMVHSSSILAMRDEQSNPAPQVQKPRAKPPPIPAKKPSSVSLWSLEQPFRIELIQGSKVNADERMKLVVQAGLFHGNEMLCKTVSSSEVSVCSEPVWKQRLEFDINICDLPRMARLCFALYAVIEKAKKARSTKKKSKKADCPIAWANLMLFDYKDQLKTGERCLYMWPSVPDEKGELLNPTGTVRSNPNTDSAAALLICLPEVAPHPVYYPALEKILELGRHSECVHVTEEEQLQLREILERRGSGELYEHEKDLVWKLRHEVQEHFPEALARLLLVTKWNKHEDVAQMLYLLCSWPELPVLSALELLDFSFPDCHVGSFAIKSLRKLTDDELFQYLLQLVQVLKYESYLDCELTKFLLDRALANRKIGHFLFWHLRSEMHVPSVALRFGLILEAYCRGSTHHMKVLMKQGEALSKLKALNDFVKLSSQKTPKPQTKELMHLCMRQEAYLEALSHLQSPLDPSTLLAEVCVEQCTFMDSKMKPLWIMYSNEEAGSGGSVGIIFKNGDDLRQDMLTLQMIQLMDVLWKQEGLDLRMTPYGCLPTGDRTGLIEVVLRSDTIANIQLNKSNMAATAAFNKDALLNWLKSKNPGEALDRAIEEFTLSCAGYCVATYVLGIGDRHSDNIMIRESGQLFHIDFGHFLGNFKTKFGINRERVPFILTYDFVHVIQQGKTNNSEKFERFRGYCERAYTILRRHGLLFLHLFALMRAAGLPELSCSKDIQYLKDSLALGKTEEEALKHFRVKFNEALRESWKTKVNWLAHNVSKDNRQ
T4 sequence (P48736 whole entry): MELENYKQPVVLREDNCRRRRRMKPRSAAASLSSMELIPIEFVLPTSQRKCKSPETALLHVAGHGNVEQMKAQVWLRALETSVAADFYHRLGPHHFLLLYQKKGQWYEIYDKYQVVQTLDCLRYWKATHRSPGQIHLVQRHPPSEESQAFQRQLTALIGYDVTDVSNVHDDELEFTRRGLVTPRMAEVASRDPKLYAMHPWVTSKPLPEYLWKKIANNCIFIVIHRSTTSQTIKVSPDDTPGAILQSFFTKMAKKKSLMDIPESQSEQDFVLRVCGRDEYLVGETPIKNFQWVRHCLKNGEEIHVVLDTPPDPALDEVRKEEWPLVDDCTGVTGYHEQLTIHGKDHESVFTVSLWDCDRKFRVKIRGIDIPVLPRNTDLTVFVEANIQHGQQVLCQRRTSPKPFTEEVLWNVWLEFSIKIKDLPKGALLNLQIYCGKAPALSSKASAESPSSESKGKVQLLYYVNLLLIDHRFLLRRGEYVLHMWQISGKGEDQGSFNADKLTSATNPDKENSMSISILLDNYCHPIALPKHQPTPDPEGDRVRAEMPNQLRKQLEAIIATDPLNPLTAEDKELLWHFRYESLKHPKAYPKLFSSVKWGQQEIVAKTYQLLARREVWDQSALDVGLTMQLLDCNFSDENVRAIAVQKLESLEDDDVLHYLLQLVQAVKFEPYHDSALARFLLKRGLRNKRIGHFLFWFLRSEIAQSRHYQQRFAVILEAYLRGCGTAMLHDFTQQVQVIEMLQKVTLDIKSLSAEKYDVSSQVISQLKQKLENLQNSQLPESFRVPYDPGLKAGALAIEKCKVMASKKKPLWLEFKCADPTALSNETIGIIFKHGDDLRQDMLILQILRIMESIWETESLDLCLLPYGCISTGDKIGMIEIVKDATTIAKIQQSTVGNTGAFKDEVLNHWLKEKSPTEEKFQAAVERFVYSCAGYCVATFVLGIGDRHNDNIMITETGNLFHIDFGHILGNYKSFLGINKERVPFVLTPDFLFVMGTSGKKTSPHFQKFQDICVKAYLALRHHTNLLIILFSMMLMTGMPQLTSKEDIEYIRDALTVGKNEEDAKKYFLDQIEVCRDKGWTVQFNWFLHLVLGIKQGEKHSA

On to `Cc1nc2ccccc2n1-c1cc(N2CCOCC2)n2nc(CN3CCC(C(C)(C)O)CC3)cc2n1` [Compound 12, 2-(1-{[5-(2-methyl-1H-1,3-benzimidazol-1-yl)-7-(morpholin-4-yl)pyrazolo[1,5-a]pyrimidin-2-yl]methyl}piperidin-4-yl)propan-2-ol], for which the IC50 (usually the concentration needed to halve the response being measured) in assay [1] is 0.878 µM. In assay [2], the IC50 came to 30.5 µM and the “Fold Selectivity α/δ” value is 35. In addition, in assay [3], inhibition was half-maximal at 195 µM (IC50) and the “Fold Selectivity β/δ” value is recorded as 222. Besides, in assay [4], the midpoint of inhibition, the IC50, lay at 119 µM and the “Fold Selectivity γ/δ” value is on record as 136.

The molecule `CC(C)(C)N1CCN(Cc2cc3nc(-n4c(C5CC5)nc5ccccc54)cc(N4CCOCC4)n3n2)CC1` [Compound 8, 1-{2-[(4-tert-butylpiperazin-1-yl)methyl]-7-(morpholin-4-yl)pyrazolo[1,5-a]pyrimidin-5-yl}-2-cyclopropyl-1H-benzimidazole] registered an IC50 in assay [1] of 1.07 µM. Also, in assay [2], 82.5 µM corresponded to half-maximal inhibition (IC50) and the “Fold Selectivity α/δ” value amounted to 77. In addition, in assay [3], half-maximal inhibition (IC50) required 259 µM and the “Fold Selectivity β/δ” value came out at 242. For the same molecule, in assay [4], inhibition was half-maximal at 271 µM (IC50) and the “Fold Selectivity γ/δ” value came out at 253.

For `CC(C)(O)C1CCN(Cc2cc3nc(-n4c(C(F)F)nc5ccccc54)cc(N4CCOCC4)n3n2)CC1` [Compound 11, 2-[1-({5-[2-(difluoromethyl)-1H-benzimidazol-1-yl]-7-(morpholin-4-yl)pyrazolo[1,5-a]pyrimidin-2-yl}methyl)piperidin-4-yl]propan-2-ol], the half-inhibitory concentration (IC50) was 0.052 µM in assay [1], 1.73 µM in assay [2] and 6.35 µM in assay [4]. Moreover, in assay [2], the “Fold Selectivity α/δ” value came to 33. In assay [4], the “Fold Selectivity γ/δ” value is 122.

As for `CC1(O)CCN(Cc2cc3nc(-n4c(C(F)F)nc5ccccc54)cc(N4CCOCC4)n3n2)CC1` [Compound 30, 1-({5-[2-(difluoromethyl)-1H-1,3-benzimidazol-1-yl]-7-(morpholin-4-yl)pyrazolo[1,5-a]pyrimidin-2-yl}methyl)-4-methylpiperidin-4-ol], the results for the IC50 in assay [1] and in assay [4] were 0.615 µM and 7.55 µM, respectively. For the same molecule, the “Fold Selectivity γ/δ” value in assay [4] was found to be 12.

Regarding `CC(C)N1CCN(C(=O)c2cc3nc(-n4c(C(F)F)nc5ccccc54)cc(N4CCOCC4)n3n2)CC1` [Compound 57, 2-(difluoromethyl)-1-[7-(morpholin-4-yl)-2-[4-(propan-2-yl)piperazine-1-carbonyl]pyrazolo[1,5-a]pyrimidin-5-yl]-1H-1,3-benzimidazole], the IC50 turned out to be 0.271 µM in assay [1] and 25.5 µM in assay [4].

In assay [1], `O=C(c1cc2nc(-n3c(C(F)F)nc4ccccc43)cc(N3CCOCC3)n2n1)N1CCC(F)(F)CC1` [Compound 47, 2-(difluoromethyl)-1-[2-(4,4-difluoropiperidine-1-carbonyl)-7-(morpholin-4-yl)pyrazolo[1,5-a]pyrimidin-5-yl]-1H-1,3-benzimidazole] gave an IC50 of 0.801 µM. In addition, in assay [4], half-maximal inhibition (IC50) was put at 35.8 µM and the “Fold Selectivity γ/δ” value is 45.

Turning to `CC1(O)CCN(C(=O)c2cc3nc(-n4c(C(F)F)nc5ccccc54)cc(N4CCOCC4)n3n2)CC1` [Compound 49, 1-{5-[2-(difluoromethyl)-1H-1,3-benzimidazol-1-yl]-7-(morpholin-4-yl)pyrazolo[1,5-a]pyrimidine-2-carbonyl}-4-methylpiperidin-4-ol], the results for the IC50 in assay [1] and in assay [4] were 0.213 µM and 1.82 µM, respectively. The “Fold Selectivity γ/δ” value in assay [4] was 8.5.

In turn, `N#CC1CCN(C(=O)c2cc3nc(-n4c(C(F)F)nc5ccccc54)cc(N4CCOCC4)n3n2)CC1` [Compound 51, 1-{5-[2-(difluoromethyl)-1H-1,3-benzimidazol-1-yl]-7-(morpholin-4-yl)pyrazolo[1,5-a]pyrimidine-2-carbonyl}piperidine-4-carbonitrile] returned an IC50 in assay [1] of 0.344 µM. Further, in assay [4], the IC50 was found to be 1.63 µM and the “Fold Selectivity γ/δ” value is recorded as 4.7.

In assay [1], `O=C(c1cc2nc(-n3c(C(F)F)nc4ccccc43)cc(N3CCOCC3)n2n1)N1CCN(C(=O)C2CC2)CC1` [Compound 43, 1-[2-(4-cyclopropanecarbonylpiperazine-1-carbonyl)-7-(morpholin-4-yl)pyrazolo[1,5-a]pyrimidin-5-yl]-2-(difluoromethyl)-1H-1,3-benzimidazole] registered an IC50 of 0.063 µM. Moreover, in assay [4], the IC50 worked out at 3.83 µM and the “Fold Selectivity γ/δ” value is 61.

With `FC(F)c1nc2ccccc2n1-c1cc(N2CCOCC2)n2nc(CN3CCC(F)(F)CC3)cc2n1` [Compound 28, 2-(difluoromethyl)-1-{2-[(4,4-difluoropiperidin-1-yl)methyl]-7-(morpholin-4-yl)pyrazolo[1,5-a]pyrimidin-5-yl}-1H-1,3-benzimidazole], the IC50 in assay [1] was 0.443 µM. Besides, in assay [4], inhibition was half-maximal at 1.71 µM (IC50) and the “Fold Selectivity γ/δ” value is listed as 3.9.

For the molecule `CC(=O)NC1CCN(C(=O)c2cc3nc(-n4c(C(F)F)nc5ccccc54)cc(N4CCOCC4)n3n2)CC1` [Compound 54, N-(1-{5-[2-(difluoromethyl)-1H-1,3-benzimidazol-1-yl]-7-(morpholin-4-yl)pyrazolo[1,5-a]pyrimidine-2-carbonyl}piperidin-4-yl)acetamide], half-maximal inhibition in assay [1] (IC50) was put at 0.141 µM. In assay [4], the IC50 came to 1.69 µM and the “Fold Selectivity γ/δ” value is recorded as 12.

For `FC(F)c1nc2ccccc2n1-c1cc(N2CCOCC2)n2nc(CN3CCOCC3)cc2n1` [Compound 23, 2-(difluoromethyl)-1-[7-(morpholin-4-yl)-2-(morpholin-4-ylmethyl)pyrazolo[1,5-a]pyrimidin-5-yl]-1H-1,3-benzimidazole], the values for the IC50 in assay [1] and in assay [4] were 0.135 µM and 1.38 µM, respectively. In addition, the “Fold Selectivity γ/δ” value in assay [4] was found to be 10.

Take `O=C(c1cc2nc(-n3c(C(F)F)nc4ccccc43)cc(N3CCOCC3)n2n1)N1CCC(CO)CC1` [Compound 50, (1-{5-[2-(difluoromethyl)-1H-1,3-benzimidazol-1-yl]-7-(morpholin-4-yl)pyrazolo[1,5-a]pyrimidine-2-carbonyl}piperidin-4-yl)methanol]: in assay [1], it took 0.09 µM to reach half-maximal inhibition (IC50). Also, in assay [4], the IC50 turned out to be 1.78 µM and the “Fold Selectivity γ/δ” value was determined as 20.

`C[C@H]1COCCN1Cc1cc2nc(-n3c(C(F)F)nc4ccccc43)cc(N3CCOCC3)n2n1` [Compound 24, 2-(difluoromethyl)-1-(2-{[(3S)-3-methylmorpholin-4-yl]methyl}-7-(morpholin-4-yl)pyrazolo[1,5-a]pyrimidin-5-yl)-1H-1,3-benzimidazole]: the values for the IC50 in assay [1] and in assay [4] were 0.254 µM and 0.588 µM, respectively. Further, the “Fold Selectivity γ/δ” value in assay [4] stood at 2.3.

Consider `CC(C)(C)N1CCN(Cc2cc3nc(-n4c(C(F)(F)F)nc5ccccc54)cc(N4CCOCC4)n3n2)CC1` [Compound 9, 1-{2-[(4-tert-butylpiperazin-1-yl)methyl]-7-(morpholin-4-yl)pyrazolo[1,5-a]pyrimidin-5-yl}-2-(trifluoromethyl)-1H-benzimidazole], for which, in assay [1], the IC50 turned out to be 0.907 µM. In assay [4], half-maximal inhibition (IC50) was put at 135 µM and the “Fold Selectivity γ/δ” value is 149.

`O=C(c1cc2nc(-n3c(C(F)F)nc4ccccc43)cc(N3CCOCC3)n2n1)N1CCCC1CO` (stereo not drawn) [Compound 44, (1-{5-[2-(difluoromethyl)-1H-1,3-benzodiazol-1-yl]-7-(morpholin-4-yl)pyrazolo[1,5-a]pyrimidine-2-carbonyl}pyrrolidin-2-yl)methanol] displayed an IC50 in assay [1] of 0.459 µM. Further, in assay [4], the midpoint of inhibition, the IC50, lay at 2.02 µM and the “Fold Selectivity γ/δ” value is listed as 4.4.

Consider `CC(C)N1CCN(Cc2cc3nc(-n4c(C(F)F)nc5ccccc54)cc(N4CCOCC4)n3n2)CC1` [Compound 38, 2-(difluoromethyl)-1-[7-(morpholin-4-yl)-2-{[4-(propan-2-yl)piperazin-1-yl]methyl}pyrazolo[1,5-a]pyrimidin-5-yl]-1H-1,3-benzimidazole], for which it took 0.038 µM to reach half-maximal inhibition in assay [1] (IC50). Also, in assay [4], half-maximal inhibition (IC50) required 13.3 µM and the “Fold Selectivity γ/δ” value amounted to 351.

Consider `CC(=O)NC1CCN(Cc2cc3nc(-n4c(C(F)F)nc5ccccc54)cc(N4CCOCC4)n3n2)CC1` [Compound 35, N-[1-({5-[2-(difluoromethyl)-1H-1,3-benzimidazol-1-yl]-7-(morpholin-4-yl)pyrazolo[1,5-a]pyrimidin-2-yl}methyl)piperidin-4-yl]acetamide], for which inhibition in assay [1] was half-maximal at 0.445 µM (IC50). In assay [4], the IC50 was determined as 1.5 µM and the “Fold Selectivity γ/δ” value is given as 3.4.

Molecule `NC(=O)C1CCN(Cc2cc3nc(-n4c(C(F)F)nc5ccccc54)cc(N4CCOCC4)n3n2)CC1` [Compound 29, 1-({5-[2-(difluoromethyl)-1H-1,3-benzimidazol-1-yl]-7-(morpholin-4-yl)pyrazolo[1,5-a]pyrimidin-2-yl}methyl)piperidine-4-carboxamide] returned an IC50 in assay [1] of 0.24 µM. In assay [4], 1.86 µM corresponded to half-maximal inhibition (IC50) and the “Fold Selectivity γ/δ” value came to 7.7.

Regarding `NC1CCN(C(=O)c2cc3nc(-n4c(C(F)F)nc5ccccc54)cc(N4CCOCC4)n3n2)C1` (stereo not drawn) [Compound 45, 1-{5-[2-(difluoromethyl)-1H-1,3-benzodiazol-1-yl]-7-(morpholin-4-yl)pyrazolo[1,5-a]pyrimidine-2-carbonyl}pyrrolidin-3-amine], the IC50 in assay [1] stood at 1.7 µM; in assay [4], 23.3 µM. For the same molecule, the “Fold Selectivity γ/δ” value in assay [4] came to 14.
